Target: Mitogen-activated protein kinase kinase kinase kinase 1 (Homo sapiens, UniProt Q92918)
Test: HPK1 Inhibition Assay
Experimental: A stock solution of 10 mM test compound was prepared in DMSO. The compound was prepared by 5-fold and 10-point serial dilutions with HPK1 kinase assay buffer. The HPK1 kinase assay buffer contained 40 mM Tris, pH 7.5; 20 mM MgCl2, 0.1 mg/ml BSA, and 50 μM DTT. 7.5 ng/μl of Active HPK1 (Promega, V4098) and 0.1 μg/ml MBP substrate protein were added to the reaction system. The final concentration of ATP in the HPK1 kinase reaction system was 10 μM. Serial diluted compounds were transferred to the reaction system and incubated at room temperature for 1 hr. 5 μL of ADP-Glo™ Reagent (Promega, V9101) was added and incubated for 40 min to stop the kinase reaction and deplete the unconsumed ATP. […] The luminescence was measured with a plate-reading luminometer.

Mitogen-activated protein kinase kinase kinase kinase 1, sequence (Q92918 whole entry): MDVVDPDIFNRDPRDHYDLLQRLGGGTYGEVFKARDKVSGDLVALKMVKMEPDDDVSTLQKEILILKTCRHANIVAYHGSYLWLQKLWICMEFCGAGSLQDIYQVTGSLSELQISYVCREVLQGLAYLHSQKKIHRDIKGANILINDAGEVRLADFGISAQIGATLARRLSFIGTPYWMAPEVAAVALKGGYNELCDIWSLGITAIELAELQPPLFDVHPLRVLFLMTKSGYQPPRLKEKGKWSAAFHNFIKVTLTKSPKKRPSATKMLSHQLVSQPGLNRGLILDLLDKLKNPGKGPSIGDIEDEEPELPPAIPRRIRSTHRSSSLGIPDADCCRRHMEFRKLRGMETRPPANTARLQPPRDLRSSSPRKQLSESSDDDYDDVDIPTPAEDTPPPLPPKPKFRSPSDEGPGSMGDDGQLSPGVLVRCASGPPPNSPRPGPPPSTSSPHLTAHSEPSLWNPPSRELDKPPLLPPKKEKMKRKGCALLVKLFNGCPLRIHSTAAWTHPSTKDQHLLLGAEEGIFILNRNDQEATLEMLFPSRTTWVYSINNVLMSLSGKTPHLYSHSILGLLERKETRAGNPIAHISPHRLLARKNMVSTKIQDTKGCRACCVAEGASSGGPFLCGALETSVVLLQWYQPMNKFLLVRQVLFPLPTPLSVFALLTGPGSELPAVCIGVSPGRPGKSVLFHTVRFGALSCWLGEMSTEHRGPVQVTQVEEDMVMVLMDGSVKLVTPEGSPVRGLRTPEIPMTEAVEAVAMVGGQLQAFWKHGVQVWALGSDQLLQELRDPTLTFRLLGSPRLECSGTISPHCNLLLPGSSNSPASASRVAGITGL

| SMILES | IC50 |
| --- | --- |
| Cc1nc2c(N3CCNC(=O)C3)c(NC(=O)c3ccc(=O)n(-c4c(F)cccc4F)n3)ccc2n1C [US20250122174, Example 83] | < 100 nM |
| Cc1nc2c(N3C[C@@H]4C[C@H]3CN4)c(NC(=O)c3ccc(=O)n(-c4c(F)cccc4F)n3)ccc2n1C [US20250122174, Example 75] | < 100 nM |
| Cn1c(-c2ccncc2F)nc2c(N3CCC[C@H]3CN)c(NC(=O)c3ccnn(-c4c(F)cccc4F)c3=O)ccc21 [US20250122174, Example 43] | < 100 nM |

Continued, values first:

| IC50 | SMILES |
| --- | --- |
| < 100 nM | Cc1nc2c(N3CC[C@@H](N)C3)c(NC(=O)c3ccc(=O)n(-c4c(Cl)cccc4Cl)n3)ccc2n1C [US20250122174, Example 108] |
| < 100 nM | CC(C)n1ncc2c(N3CCC(N)CC3)c(NC(=O)c3ccc(=O)n(-c4c(F)cccc4F)n3)ccc21 [US20250122174, Example 184] |
| < 100 nM | CC(C)c1nc2c(N3CC[C@H]4NCC[C@H]43)c(NC(=O)c3ccc(=O)n(-c4c(F)cccc4F)n3)ccc2n1C [US20250122174, Example 135] |

From BindingDB's records for patent US20250122174 (Shenzhen Yuanli Shenwan Innovative Medicine, 2025)
